Experimental data: patent US4666934A, “Prostaglandin analogs” (The Upjohn Company, priority 1985, dated 1987)
In brackets after ≈: the same amount, converted by molar mass. Where a name gives a salt, the structure may show the parent alone. Each block holds one compound with its values, some of them ahead of it.

Legend:
Format in all cases: physicochemical
[1] = Water solubility; details: for Water solubility: in words
[2] = Characterizability (passes profile; moisture content after air equilibration); details: for Characterizability (passes profile): Table I
[3] = Specific gravity (volume displacement, pycnometer); details: 20° C., acetonitrile
Experimental: To obtain specific gravity data approximate densities were obtained using a volume displacement procedure. To a 5 ml weighed pycnometer was added 200-300 mg of salt and acetonitrile added to fill. The salt suspensions were sonicated to remove entrapped air and equilibrated to 20° C. in a water bath. The salt densities were estimated by standard methods of calculation.

[4] = Solid-state stability; details: for Solid state stability (degradation): 2 months at 33° C., 87600 min; for Solid-state stability (visual observation): 75% R.H., 30°, same = as at day 0
Experimental: (§1) The solid-state stability studies were performed as follows. Approximately 10-15 mg of the free acid or a salt was placed in either clear glass vials or amber vials wrapped in aluminum foil and stored under various conditions as listed below:
(a) Refrigerated at about 4° C. (dark).
(b) High Intensity Light Box at about 33° C. and relative humidity <15%. (Light Box contained 6-15 watt fluorescent bulbs 41/2 inches above the powder surface.) Sample vials were placed on their sides with powder spread evenly on the vial wall.
(c) 30° C./75% relative humidity/dark-vials were capped loosely.
(§2) At various times, 1-1.5 mg samples were dissolved in methanol, diluted to a prescribed volume with water, and analyzed by high pressure liquid chromatography versus reference standard of the free acid stored at -20° C. Chromatographic conditions were similar to those described previously.

[5] = Trichlorotrifluoroethane solubility
Experimental: The solubility of the compounds in trichlorotrifluoroethane, a high molecular weight fluorochlorinated alkane liquid propellant, was determined as follows. Suspensions of each compound were prepared at concentrations of ~1 mg/ml in trichlorotrifluoroethane in 30 ml glass vials sealed using polytetrafluoroethylene lined caps. These vials were wrapped with aluminum foil and shaken at ~25° C. After 26 days shaking the samples were filtered. Three successive 5 ml fractions were collected from the filter and analyzed to test for adsorption. (No adsorption was observed.)
The 5 ml samples were transferred to 5 ml volumetric flasks and solvent was evaporated under nitrogen. The residue was redissolved in 1 ml methanol and diluted to 5 ml with 30% CH3 CN. Samples were assayed by high pressure liquid chromatography.

[6] = Stability suspended in trichlorotrifluoroethane; details: dark, 30°
Experimental: as §1
(d) Suspended in […] and shaken continuously for 26 days.
as §2

Water solubility ([1]; sodium salt): Soluble | moisture content after air equilibration ([2]; sodium salt): .82 % H2O | Specific gravity ([3]; sodium salt): 1.18 | Solid state stability (degradation) ([4]; sodium salt): > 50% | Solid-state stability ([4]; Dark, 4°, 0 days, sodium salt): 101% of Theory | Solid-state stability ([4]; Dark, 33°, 0 days, sodium salt): 101% of Theory | Solid-state stability ([4]; Dark, 33°, 19 days, sodium salt, 27360 min): 61% of Theory | Solid-state stability (visual observation) ([4]; Dark, 19 days, sodium salt): same | Solid-state stability ([4]; High intensity light, 33°, relative humidity <15%, 0 days, sodium salt): 101% of Theory | Solid-state stability ([4]; High intensity light, 33°, relative humidity <15%, 19 days, sodium salt, 27360 min): 3% of Theory | remaining at 456 h ([4]; solid state, Dark, 4°, 19 days): 87% | remaining at 1104 h ([4]; solid state, Dark, 4°, 46 days): 77%
Compound: CCCCC[C@H](O)/C=C/[C@@H]1c2cc(CCCCC(=O)O)n(-c3ccccc3)c2C[C@H]1O [Sodium Salt, 6,9-Deepoxy-6,9-(phenylimino)-Δ6,8-prostaglandin I1, sodium salt]
Characterizability (passes profile) ([2]; sodium salt): Initial analysis acceptable but later assays (HPLC) unacceptable

solubility at 624 h ([5]; trichlorotrifluoroethane, organic solvent or mixture, ~25° C., 26 days shaking): 0.38 µg/mL (≈ 0.893 µM) | solubility ([1]; water, Table I, numeric): 1 µg/mL (≈ 2.35 µM) | Characterizability (passes profile) [2]: Pass | Stability in trichlorotrifluoroethane suspension ([6]; 0 days): 100% of Theory | remaining at 624 h ([6]; trichlorotrifluoroethane, 26 days, read-out: Stability in trichlorotrifluoroethane suspension): 94% | Solid state stability (degradation) [4]: > 10% | Solid-state stability ([4]; Dark, 33°, 0 days): 100% of Theory | Solid-state stability ([4]; Dark, 33°, 19 days, 27360 min): 98% of Theory | Solid-state stability ([4]; Dark, 33°, 189 days, 272160 min): 65% of Theory | Solid-state stability ([4]; Dark, 33°, 289 days, 416160 min): 46% of Theory | Solid-state stability ([4]; Dark, 33°, 405 days, 583200 min): 19% of Theory | Solid-state stability (visual observation) ([4]; Dark, 19 days): same | Solid-state stability ([4]; High intensity light, 33°, relative humidity <15%, 0 days): 100% of Theory | Solid-state stability ([4]; High intensity light, 33°, relative humidity <15%, 19 days, 27360 min): 55% of Theory | remaining at 960 h ([4]; solid state, Dark, 33°, 40 days): 94% | remaining at 1584 h ([4]; solid state, Dark, 33°, 66 days): 89%
Compound: CCCCC[C@H](O)/C=C/[C@@H]1c2cc(CCCCC(=O)O)n(-c3ccccc3)c2C[C@H]1O [Free Acid, 6,9-deepoxy-6,9-(phenylimino)-Δ6,8-prostaglandin I1, reference compound]

Trichlorotrifluoroethane solubility ([5]; ~25° C., 26 days shaking, potassium salt, 37440 min): 0.43 µg/mL | Water solubility ([1]; listed as potassium salt, potassium salt): high water solubility | Water solubility ([1]; potassium salt): Soluble | Characterizability (passes profile) ([2]; potassium salt): Pass | moisture content after air equilibration ([2]; potassium salt): .42 % H2O | Stability in trichlorotrifluoroethane suspension ([6]; 26 days, potassium salt, 37440 min): 100% of Theory | Specific gravity ([3]; potassium salt): 1.20 | Solid state stability (degradation) ([4]; potassium salt): < 2% | Solid-state stability ([4]; Dark, 4°, 0 days, potassium salt): 100% of Theory | Solid-state stability ([4]; Dark, 33°, 0 days, potassium salt): 100% of Theory | Solid-state stability ([4]; Dark, 33°, 19 days, potassium salt, 27360 min): 100% of Theory | Solid-state stability ([4]; Dark, 33°, 40 days, potassium salt, 57600 min): 100% of Theory | Solid-state stability ([4]; Dark, 33°, 66 days, potassium salt, 95040 min): 100% of Theory | Solid-state stability ([4]; Dark, 33°, 289 days, potassium salt, 416160 min): 96% of Theory | Solid-state stability ([4]; Dark, 33°, 405 days, potassium salt, 583200 min): 96% of Theory | Solid-state stability (visual observation) ([4]; Dark, 19 days, potassium salt): glass | Solid-state stability ([4]; High intensity light, 33°, relative humidity <15%, 0 days, potassium salt): 100% of Theory | Solid-state stability ([4]; High intensity light, 33°, relative humidity <15%, 19 days, potassium salt, 27360 min): 48% of Theory | Rank order of stability ([4]; protected from light, 33°): potassium salt>free acid>sodium salt | remaining at 1584 h ([4]; solid state, Dark, 4°, 66 days): 102% | remaining at 4536 h ([4]; solid state, Dark, 4°, 189 days): 101% | remaining at 2400 h ([4]; solid state, Dark, 33°, 100 days): 97% | remaining at 5184 h ([4]; solid state, Dark, 33°, 216 days): 98%
Compound: CCCCC[C@H](O)/C=C/[C@@H]1c2cc(CCCCC(=O)O)n(-c3ccccc3)c2C[C@H]1O [Potassium Salt, 6,9-Deepoxy-6,9-(phenylimino)-Δ6,8-prostaglandin I1, potassium salt]
Solubility in fluorinated and fluorochlorinated liquified propellants ([5]; as compared to the free acid, in words): low solubility in fluorinated and fluorochlorinated liquified propellants | Solid-state stability ([4]; in words, over the free acid or the sodium salt): improved solid-state stability over the free acid or the sodium salt
